Test results as given in US20260250290A1 (BRISTOL-MYERS SQUIBB COMPANY, priority 2023, published 2026).
Where a name gives a salt, the structure may show the parent alone.

Biological target: T1, full length SGK1 (Homo sapiens, UniProt O00141)
T1 construct: 125 μM full length SGK1 (Life Technologies Part #PR7358A); purchased Life Technologies PR7358A
T1 sequence (O00141 1-431): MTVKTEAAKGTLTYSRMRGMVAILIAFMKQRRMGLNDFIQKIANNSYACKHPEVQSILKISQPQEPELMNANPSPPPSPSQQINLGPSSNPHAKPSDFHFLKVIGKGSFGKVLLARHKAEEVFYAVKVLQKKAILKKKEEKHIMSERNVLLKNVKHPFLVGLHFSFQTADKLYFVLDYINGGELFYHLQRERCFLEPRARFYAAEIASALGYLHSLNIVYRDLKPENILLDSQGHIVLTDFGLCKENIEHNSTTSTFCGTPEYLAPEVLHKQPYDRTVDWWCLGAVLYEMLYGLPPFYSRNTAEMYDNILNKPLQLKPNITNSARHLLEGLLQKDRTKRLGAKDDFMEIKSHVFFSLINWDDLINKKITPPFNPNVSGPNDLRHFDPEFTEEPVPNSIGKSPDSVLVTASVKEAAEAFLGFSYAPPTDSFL
Test: SGK1 inhibition Assay A (Caliper LabChip electrophoretic separation of fluorescent peptide substrate and phosphorylated product)
Format: biochemical
Conditions: Assay A; 20 μM ATP, 40 min incubation; read-out: SGK1 IC50

IC50 | Structure (SMILES)
239 nM | CS(=O)(=O)c1ccc(-c2cc(N3CCCC(NC(=O)c4cccnn4)C3)c3c(N)ncnn23)cc1 (centres unmarked) [Example 3, N-(1-(4-amino-7-(4-(methylsulfonyl)phenyl)pyrrolo[2,1-f][1,2,4]triazin-5-yl)piperidin-3-yl)pyridazine-3-carboxamide, TFA]
21 nM | COC(=O)N1CC=C(c2cc(N3CCC[C@@H](NC(=O)c4sc(Cl)cc4OCCN4CC(OC)C4)C3)c3c(N)ncnn23)C1 [Example 290]
4 nM | Nc1ncnn2c(-c3ccnc(C(F)F)c3)cc(N3CCC[C@@H](NC(=O)c4cccs4)C3)c12 [Example 484, (R)-N-(1-(4-amino-7-(2-(difluoromethyl)pyridin-4-yl)pyrrolo[2,1-f][1,2,4]triazin-5-yl)piperidin-3-yl)thiophene-2-carboxamide]
58 nM | Nc1ncnn2c(-c3cnccn3)cc(N3CCC[C@@H](NC(=O)c4ccc(Cl)s4)C3)c12 [Example 535, (R)-N-(1-(4-amino-7-(pyrazin-2-yl)pyrrolo[2,1-f][1,2,4]triazin-5-yl)piperidin-3-yl)-5-chlorothiophene-2-carboxamide]
21 nM | CN(C)CCOc1cc(C2CC2)sc1C(=O)N[C@@H]1CCCN(c2cc(-c3ccc(=O)n(CC(F)F)c3)n3ncnc(N)c23)C1 [Example 375, (R)-N-(1-(4-amino-7-(1-(2,2-difluoroethyl)-6-oxo-1,6-dihydropyridin-3-yl)pyrrolo[2,1-f] [1,2,4]triazin-5-yl)piperidin-3-yl)-5-cyclopropyl-3-(2-(dimethylamino)ethoxy)thiophene-2-carboxamide]
4 nM | CC(=O)N1CC=C(c2cc(N3CCC[C@@H](NC(=O)c4sc(Cl)cc4OCCN(C)C)C3)c3c(N)ncnn23)C1 [Example 175, (R)—N-(1-(7-(1-acetyl-2,5-dihydro-1H-pyrrol-3-yl)-4-aminopyrrolo[2,1-f][1,2,4]triazin-5-yl)piperidin-3-yl)-5-chloro-3-(2-(dimethylamino)ethoxy)thiophene-2-carboxamide, 2 TFA]
1 nM | CC(=O)N1CC=C(c2cc(N3CCC[C@@H](NC(=O)c4cccc(N5CCNC(C)(C)C5)n4)C3)c3c(N)ncnn23)C1 [Example 773, (R)-N-(1-(7-(1-acetyl-2,5-dihydro-1H-pyrrol-3-yl)-4-aminopyrrolo[2,1-f][1,2,4]triazin-5-yl)piperidin-3-yl)-6-(3,3-dimethylpiperazin-1-yl)picolinamide]
233 nM | CC(C)(O)c1ccc(-c2cc(N3CCC[C@@H](NC(=O)c4ccc(Cl)s4)C3)c3c(N)ncnn23)cc1 [Example 218, (R)-N-(1-(4-amino-7-(4-(2-hydroxypropan-2-yl)phenyl)pyrrolo[2,1-f][1,2,4]triazin-5-yl)piperidin-3-yl)-5-chlorothiophene-2-carboxamide, TFA]
6 nM | NCCC(=O)N1CC=C(c2cc(N3CCC[C@@H](NC(=O)c4ccc(Cl)s4)C3)c3c(N)ncnn23)C1 [Example 883, (R)-N-(1-(4-amino-7-(1-(3-aminopropanoy1)-2,5-dihydro-1H-pyrrol-3-yl)pyrrolo[2,1-f][1,2,4]triazin-5-y1)piperidin-3-y1)-5-chlorothiophene-2-carboxamide]
7 nM | Nc1ncnn2c(C3=CCN(C(=O)C4CCCOC4)C3)cc(N3CCC[C@@H](NC(=O)c4ccc(Cl)s4)C3)c12 (stereo partly drawn) [Example 893, N-((3R)-1-(4-amino-7-(1-(tetrahydro-2H-pyran-3-carbony1)-2,5-dihydro-1H-pyrrol-3-yl)pyrrolo[2,1-f][1,2,4]triazin-5-y1)piperidin-3-y1)-5-chlorothiophene-2-carboxamide]

Structure (SMILES) | IC50
COC(=O)N1CC=C(c2cc(N3CCC[C@@H](NC(=O)c4sc(Cl)cc4OC4CCNC(C)C4)C3)c3c(N)ncnn23)C1 (stereo partly drawn) [Example 624, Methyl 3-(4-amino-5-((3R)-3-(5-chloro-3-((2-methylpiperidin-4-yl)oxy)thiophene-2-carboxamido)piperidin-1-yl)pyrrolo[2,1-f][1,2,4]triazin-7-y1)-2,5-dihydro-1H-pyrrole-1-carboxylate] | 7 nM
